Reference: US20030082194A1, “Compositions and methods for diagnosis and therapy of malignant mesothelioma” (priority 2000, published 2003)

What was measured:
[1] = test system: mouse B6 class I antigens (D^b or K^b molecules on RMA-S cells); assay: Peptide binding to C57Bl/6 murine MHC on RMA-S cells, flow cytometry (Tables 48, 49); type: cell-based
Procedure: In brief, RMA-S cells were cultured for 7 hrs at 26° C. in complete medium supplemented with 1% FCS. A total of […] RMA-S cells were added into each well of a 24-well plate and incubated either alone or with the designated peptide (25 μg/ml) for 16 hrs at 26° C. and additional 3 hrs at 37° C. in complete medium. Cells were then washed three times and stained with fluorescein isothiocyanate-conjugated anti Db or anti-Kb antibody (PharMingen, San Diego, CA). Labeled cells were washed twice, resuspended and fixed in 500 μl of PBS with 1% paraformaldehyde and analyzed for fluorescence intensity in a flow cytometer (Becton-Dickinson FACSCalibur®). The percentage of increase of D^b or K^b molecules on the surface of the RMA-S cells was measured by increased mean fluorescent intensity of cells incubated with peptide compared with that of cells incubated in medium alone.

[2] = test system: targets incubated with WT1 peptides (EL-4); assay: CTL chromium release assay, peptide-incubated targets; type: cell-based, mouse; settings: for generation of peptide specific CTL following immunization: mice immunized with peptide, spleen cells stimulated in vitro, chromium release; for lysis of targets incubated with the relevant peptide by peptide specific CTL: chromium release assay
Procedure: (§1) Following immunization, spleen cells were stimulated in vitro and tested for the ability to lyse targets incubated with WT1 peptides. CTL were evaluated with a standard chromium release assay (Chen et al., 1994). […] target cells were incubated at 37° C. with 150 μCi of sodium ^51Cr for 90 min., in the presence or absence of specific peptides. Cells were washed three times and resuspended in RPMI with 5% fetal bovine serum. For the assay, 10^4 51Cr-labeled target cells were incubated with different concentrations of effector cells in a final volume of 200 μl in U-bottomed 96-well plates. Supernatants were removed after 4-7 hrs at 37° C., and the percentage specific lysis was determined by the formula:
(§2) % Specific lysis=100×(experimental release−spontaneous release)/(maximum release-spontaneous release).
P117-139, a peptide with motifs appropriate for binding to class I and class II MHC, was identified as described above using TSITES and BIMAS HLA peptide binding prediction analyses. Mice were immunized as described in Example 3. Following immunization, spleen cells were stimulated in vitro and tested for the ability to lyse targets incubated with WT1 peptides, as well as WT1 positive and negative tumor cells. CTL were evaluated with a standard chromium release assay.
Following immunization, spleen cells were stimulated in vitro with each of the 4 peptides and tested for ability to lyse targets incubated with WT1 peptides.

[3] = test system: WT1 positive tumor cell lines (TRAMP-C, BLK-SV40); assay: CTL chromium release assay, WT1 positive tumor cell lines; type: cell-based, mouse
Procedure: as §1, §2
P117-139, a peptide with motifs appropriate for binding to class I and class II MHC, was identified as described above using TSITES and BIMAS HLA peptide binding prediction analyses. Mice were immunized as described in Example 3. Following immunization, spleen cells were stimulated in vitro and tested for the ability to lyse targets incubated with WT1 peptides, as well as WT1 positive and negative tumor cells. CTL were evaluated with a standard chromium release assay. […]

[4] = test system: T cells / spleen cells of immunized B6 mice; assay: Proliferative T cell response, thymidine incorporation assay after immunization of B6 mice with WT1 peptides; type: cell-based, mouse; settings: for stimulation index (SI), proliferative T cell response: B6 mice immunized with WT1 peptides, thymidine incorporation, FIG. 3
[5] = target: Mouse B6 (C57Bl/6) MHC class I antigens on RMA-S cells (D^b or K^b) (mouse (C57Bl/6)); assay: binding of 9-mer peptide to mouse B6 (H-2b) class I; RMA-S stabilisation assay as in Example 4
[6] = target: Mouse B6 (C57Bl/6) MHC class I antigens on RMA-S cells (D^b or K^b) (mouse (C57Bl/6)); assay: RMA-S MHC stabilisation, peptide 25 ug/ml, FITC anti-Db or anti-Kb, flow cytometry (MFI increase over medium alone)
[7] = peptide 25 μg/ml, percentage of increase of Db or Kb molecules (mean fluorescent intensity) vs medium alone, Table 48
[8] = 9-mer peptides within p117-139, mouse B6 class I antigens, Table 49

ALLPAVPSL (listed as Homo sapiens) [SEQ ID NO:34]
Binding Affinity to Mouse MHC Class I [1, 7]: 2.2% | generation of peptide specific CTL following immunization [2]: peptide specific CTL lines were generated

CMTWNQMNL (listed as Homo sapiens, listed as Mus musculus) [SEQ ID NO:49]
Binding Affinity to Mouse MHC Class I [1, 7]: 33.6% | lysis of WT1 positive tumor cells by peptide specific CTL [3]: failed to lyse cell lines that expressed WT1 proteins | lysis of targets incubated with the relevant peptide by peptide specific CTL [2]: lysed targets incubated with the p235-243 peptides | generation of peptide specific CTL following immunization ([2]; listed as p235-243): peptide specific CTL lines were generated

GATLKGVAAGSSSSVKWTE (listed as Homo sapiens) [p244-262]
stimulation indices (SI), proliferative T cell responses to the immunizing peptides ([4]; Vaccine A, bulk lines, peptide 25 μg/ml, 96 hr, FIG. 4A): No proliferative response

NAPYLPSCL (listed as Homo sapiens) [SEQ ID NO:144]
Binding Affinity to Mouse MHC Class I [1, 8]: 79% | binding to H-2b class I molecules / class I MHC molecules ([1]; peptide 25 μg/ml): shown to bind to H-2b class I molecules | lysis of WT1 positive tumor cells by peptide specific CTL [3]: showed lysis of a WT1 positive tumor cell line | lysis of targets incubated with 9-mer peptide by CTL generated by immunization with p117-139 ([2]; FIG. 10A): lysed | lysis of targets incubated with the relevant peptide by peptide specific CTL [2]: demonstrated peptide specific lysis

NLYQMTSQL (listed as Homo sapiens) [SEQ ID NO:147]
Binding Affinity to Mouse MHC Class I [1, 7]: 5.8%

P117-125 (PSQASSGQA) [Peptide P117-125]
Binding Affinity to Mouse MHC Class I [1, 8]: 2%

P118-126 (SQASSGQAR) [Peptide P118-126]
Binding Affinity to Mouse MHC Class I [1, 8]: 2%

P119-127 (QASSGQARM) [Peptide P119-127]
Binding Affinity to Mouse MHC Class I [1, 8]: 2%

P120-128 (ASSGQARMF) [Peptide P120-128]
Binding Affinity to Mouse MHC Class I [1, 8]: 1%

P121-129 (SSGQARMFP) [Peptide P121-129]
Binding Affinity to Mouse MHC Class I [1, 8]: 1%

P124-132 (QARMFPNAP) [Peptide P124-132]
Binding Affinity to Mouse MHC Class I [1, 8]: 1%

P125-133 (ARMFPNAPY) [Peptide P125-133]
Binding Affinity to Mouse MHC Class I [1, 8]: 1%

P127-135 (MFPNAPYLP) [Peptide P127-135]
Binding Affinity to Mouse MHC Class I [1, 8]: 2%

P128-136 (FPNAPYLPS) [Peptide P128-136]
Binding Affinity to Mouse MHC Class I [1, 8]: 1%

P129-137 (PNAPYLPSC) [Peptide P129-137]
Binding Affinity to Mouse MHC Class I [1, 8]: 1%

P131-139 (APYLPSCLE) [Peptide P131-139]
Binding Affinity to Mouse MHC Class I [1, 8]: 1%

RDLNALLPAVPSLGGGG (listed as Homo sapiens) [p6-22]
stimulation index (SI), proliferative T cell response [4]: 2.3 | proliferation of Vaccine A specific T cell line after single peptide in vitro stimulation ([4]; FIG. 5A, 5C): proliferation to p6-22 with no response to p117-139

SCLESQPAI (listed as Homo sapiens) [SEQ ID NO:198]
Binding Affinity to Mouse MHC Class I [1, 7]: 52% | generation of peptide specific CTL following immunization [2]: peptide specific CTL lines were generated

VRRVSGVAPTLVRS (listed as Mus musculus) [P299-313]
stimulation index (SI), proliferative T cell response [4]: 3.3

p221-229 (YSSDNLYQM)
Binding Affinity to Mouse MHC Class I [1, 7]: 0.8%

p228-236 (QMTSQLECM)
Binding Affinity to Mouse MHC Class I [1, 7]: 1.2%

p329-337 (GCNKRYFKL)
Binding Affinity to Mouse MHC Class I [1, 7]: 1.2%

NAPYLPSCL [WT1 peptide P130-138 (…)]
Binding Affinity to Mouse MHC Class I (%) [5]: 79%

ARMFPNAPY [WT1 peptide P125-133 (…)]
Binding Affinity to Mouse MHC Class I (%) [5]: 1%

CMTWNQMNL [WT1 peptide p235-243 (…)]
Binding Affinity to Mouse MHC Class I (% increase of Db or Kb on RMA-S cells) [6]: 33.6%

ASSGQARMF [WT1 peptide P120-128 (…)]
Binding Affinity to Mouse MHC Class I (%) [5]: 1%

SQASSGQAR [WT1 peptide P118-126 (…)]
Binding Affinity to Mouse MHC Class I (%) [5]: 2%

FPNAPYLPS [WT1 peptide P128-136 (…)]
Binding Affinity to Mouse MHC Class I (%) [5]: 1%

NLYQMTSQL [WT1 peptide p225-233 (…)]
Binding Affinity to Mouse MHC Class I (% increase of Db or Kb on RMA-S cells) [6]: 5.8%

APYLPSCLE [WT1 peptide P131-139 (…)]
Binding Affinity to Mouse MHC Class I (%) [5]: 1%

QARMFPNAP [WT1 peptide P124-132 (…)]
Binding Affinity to Mouse MHC Class I (%) [5]: 1%

MFPNAPYLP [WT1 peptide P127-135 (…)]
Binding Affinity to Mouse MHC Class I (%) [5]: 2%

PNAPYLPSC [WT1 peptide P129-137 (…)]
Binding Affinity to Mouse MHC Class I (%) [5]: 1%

ALLPAVPSL [WT1 peptide human p10-18 (…)]
Binding Affinity to Mouse MHC Class I (% increase of Db or Kb on RMA-S cells) [6]: 2.2%

QASSGQARM [WT1 peptide P119-127 (…)]
Binding Affinity to Mouse MHC Class I (%) [5]: 2%

SCLESQPAI [WT1 peptide human p136-144 (…)]
Binding Affinity to Mouse MHC Class I (% increase of Db or Kb on RMA-S cells) [6]: 52%

SSGQARMFP [WT1 peptide P121-129 (…)]
Binding Affinity to Mouse MHC Class I (%) [5]: 1%

PSQASSGQA [WT1 peptide P117-125 (…)]
Binding Affinity to Mouse MHC Class I (%) [5]: 2%

GCNKRYFKL [WT1 peptide p329-337 (…)]
Binding Affinity to Mouse MHC Class I (% increase of Db or Kb on RMA-S cells) [6]: 1.2%

QMTSQLECM [WT1 peptide p228-236 (…)]
Binding Affinity to Mouse MHC Class I (% increase of Db or Kb on RMA-S cells) [6]: 1.2%

YSSDNLYQM [WT1 peptide p221-229 (…)]
Binding Affinity to Mouse MHC Class I (% increase of Db or Kb on RMA-S cells) [6]: 0.8%
